# Test results from article PMC10987829 (iScience, 2024).
# B1: Nap1glu: TTLL4-treated (glutamylated) full-length Nap1 (protein)
# chain: MANIDNKGQTELDQQDMEDVEDVEEEETGEDANSKARQLTAQMMQNPQVLAALQERLDDLVGTPTGYIESLPKVVKRRVNALKNLQVKCAQIEAKFYEEVHELERKYAALYQPLFDKRSDIINATYEPTEEECEWKVEEEDISGDLKEKAKLEEEKKDEEKEDPKGIPEFWLTVFKNVDLLSDMLQEHDEPILKHLKDIKVKFSDAGQPMSFTLEFYFEPNEFFTNEVLTKTYKMRSEPDESDPFSFDGPEIMGCTGCLIDWKKGKNVTLKTIKKKQKHKGRGTVRTVTKTVPNDSFFNFFTPPEVPENGELDDDAEAILTADFEIGHFLRERIIPRSVLYFTGEAIEDDDDDYDEEGEEADDEEGEEEADEDNDPDYEPKV
# Key:
# [1] = molecular target: H2A/H2B dimers (Xenopus laevis, UniProt P02281+P06897); assay: Protein thermal shift; format: binding; conditions: H2A/H2B 0.5 mg/mL, ligand 1.2:1 molar ratio, 50 mM Bis-Tris propane pH 7.4, 150 mM NaCl, 10X SYPRO Orange; apo H2A/H2B Tm 46.1 ± 0.2°C; three replicates
# [2] = test system: H3/H4; conditions: cited from earlier work
# [3] = molecular target: Npm2 A2mockglu4 peptide (…), 'pseudo-glutamylated' (Xenopus laevis); assay: other fluorescence titration
# [4] = test system: mononucleosomes; assay: Disassembly of premade mononucleosomes; format: biochemical; conditions: salt-dialysis mononucleosomes, increasing chaperone
molecule,measurement,setting,value
DYDEEGEEADDEEGEEEADEDHDPDFDPK [Nap1 A3 (350–382)],change of H2A/H2B melting temperature (Tm),[1],6.7 °C
"Npm2 Tail (119–146): Npm2 C-terminal Tail domain peptide, residues 119–146, purified as previously described (AMEEDYSWAEEEDEGEEEEEEEEDPESP)",fold lower affinity for H3/H4 than for H2A/H2B,[2],5 fold
Xenopus laevis H2A/H2B heterodimer (from UniProt P06897;P02281) (complex),Kd,[3],0.3 µM
B1,disassembly of premade mononucleosomes,[4],neither Nap1 nor Nap1glu were able to disassemble premade mononucleosomes
